Among the data in patent US10428044B2, “3-amino-1,5,6,7-tetrahydro-4H-indol-4-ones” (Bayer Pharma Aktiengesellschaft, priority 2014, dated 2019) are IC50 values, retold here.

What is called IC50 is the point on the concentration scale where inhibition reaches its midpoint.

Sequence of (recombinant) catalytic domain of human Bub1 (amino acids 704-1085) (O43683 704-1085): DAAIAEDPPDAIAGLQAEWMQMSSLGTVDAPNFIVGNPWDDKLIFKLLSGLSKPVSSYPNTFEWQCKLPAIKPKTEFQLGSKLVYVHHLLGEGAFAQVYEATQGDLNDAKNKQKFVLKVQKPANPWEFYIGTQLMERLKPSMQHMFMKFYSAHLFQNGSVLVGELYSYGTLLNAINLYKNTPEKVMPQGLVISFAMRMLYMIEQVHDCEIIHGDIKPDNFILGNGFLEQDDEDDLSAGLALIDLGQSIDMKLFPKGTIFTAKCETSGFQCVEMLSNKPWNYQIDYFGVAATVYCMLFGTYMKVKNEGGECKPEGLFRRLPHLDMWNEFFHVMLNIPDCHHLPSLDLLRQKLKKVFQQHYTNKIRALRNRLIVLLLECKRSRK

The target in the assay is (recombinant) catalytic domain of human Bub1 (amino acids 704-1085) (Homo sapiens (Human), UniProt O43683). As to the kind of experiment: Bub1 kinase assay (TR-FRET). As to conditions: ATP 10 μM final, peptide substrate 1 μM final, 60 min at 22° C., read-out: Biological Assay: Bub1 kinase assay median IC50. In kind it is biochemical. An outline of the steps:
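Readout was TR-FRET between a Eu-labeled antibody complex recognizing phosphoserine and streptavidin-XL665 on the biotinylated peptide, after EDTA stop and 1 h at 22° C. The kinase reaction ran for 60 min at 22° C. Values are means or medians of repeat tests, from 4-parameter fits normalized to enzyme-free and inhibitor-free controls.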
In general terms: In TR-FRET formats the signal depends on donor and acceptor labels being close together.
Take `CC1(C)CC(=O)c2c([nH]c(-c3ccncc3)c2Nc2ccccc2CO)C1` [Example 426, 3-{[2-(hydroxymethyl)phenyl]amino}-6,6-dimethyl-2-(pyridin-4-yl)-1,5,6,7-tetrahydro-4H-indol-4-one]: the IC50 was 2.58 nM.
Turning to `CC1(C)CC(=O)c2c([nH]c(-c3ccncc3)c2Nc2ccccc2CCO)C1` [Example 427, 3-{[2-(2-hydroxyethyl)phenyl]amino}-6,6-dimethyl-2-(pyridin-4-yl)-1,5,6,7-tetrahydro-4H-indol-4-one], the IC50 is 8.4 nM.
Then `C#Cc1cccc(Nc2c(-c3ccncc3)[nH]c3c2C(=O)CC(C)(C)C3)c1` [Example 428, 3-[(3-ethynylphenyl)amino]-6,6-dimethyl-2-(pyridin-4-yl)-1,5,6,7-tetrahydro-4H-indol-4-one], with 509 nM; and `CC1(C)CC(=O)c2c([nH]c(-c3ccncc3)c2Nc2ccccc2C(N)=O)C1` [Example 429, 2-{[6,6-dimethyl-4-oxo-2-(pyridin-4-yl)-4,5,6,7-tetrahydro-1H-indol-3-yl]amino}benzamide], with 70.9 nM.
In the case of `CC1(C)CC(=O)c2c([nH]c(-c3ccncc3)c2Nc2ccc(S(N)(=O)=O)cc2)C1` [Example 432, 4-{[6,6-dimethyl-4-oxo-2-(pyridin-4-yl)-4,5,6,7-tetrahydro-1H-indol-3-yl]amino}benzenesulfonamide], the IC50 was 2360 nM.
Then `CC1(C)CC(=O)c2c([nH]c(-c3ccncc3)c2Nc2ccc(C#N)cc2)C1` [Example 433, 4-{[6,6-dimethyl-4-oxo-2-(pyridin-4-yl)-4,5,6,7-tetrahydro-1H-indol-3-yl]amino}benzonitrile], with 2930 nM; and `CN(C)c1ccc(Nc2c(-c3ccncc3)[nH]c3c2C(=O)CC(C)(C)C3)cc1` [Example 435, 3-{[4-(dimethylamino)phenyl]amino}-6,6-dimethyl-2-(pyridin-4-yl)-1,5,6,7-tetrahydro-4H-indol-4-one], with 1380 nM.
Then `O=C1CC(C(F)(F)F)Cc2[nH]c(-c3ccncc3Cl)c(Nc3cccc(F)c3)c21` (stereo not shown) [Example 436, 2-(3-chloropyridin-4-yl)-3-[(3-fluorophenyl)amino]-6-(trifluoromethyl)-1,5,6,7-tetrahydro-4H-indol-4-one], with 20.9 nM.
For the molecule `CC1(C)CC(=O)c2c([nH]c(-c3ccnc(CO)c3)c2Nc2ccccc2)C1` [Example 437, 2-[2-(hydroxymethyl)pyridin-4-yl]-6,6-dimethyl-3-(phenylamino)-1,5,6,7-tetrahydro-4H-indol-4-one], the half-inhibitory concentration (IC50) was 579 nM.
Next, `CC1(C)CC(=O)c2c([nH]c(-c3ccncc3C(F)(F)F)c2Nc2ccccc2)C1` [Example 438, 6,6-dimethyl-3-(phenylamino)-2-[3-(trifluoromethyl)pyridin-4-yl]-1,5,6,7-tetrahydro-4H-indol-4-one]: 345 nM; `CC1(C)CC(=O)c2c([nH]c(-c3ccnc(S(N)(=O)=O)c3)c2Nc2ccccc2)C1` [Example 439, 4-[6,6-dimethyl-4-oxo-3-(phenylamino)-4,5,6,7-tetrahydro-1H-indol-2-yl]pyridine-2-sulfonamide]: 649 nM; `O=C1CC(CF)Cc2[nH]c(-c3ccncc3)c(Nc3ccccc3)c21` (stereo not shown) [Example 442, 6-(fluoromethyl)-3-(phenylamino)-2-(pyridin-4-yl)-1,5,6,7-tetrahydro-4H-indol-4-one]: 6.97 nM.
Next, `O=C1CC(CCl)Cc2[nH]c(-c3ccncc3)c(Nc3ccccc3)c21` (stereo not shown) [Example 443, 6-(chloromethyl)-3-(phenylamino)-2-(pyridin-4-yl)-1,5,6,7-tetrahydro-4H-indol-4-one]: 5.05 nM; `CC(=O)Nc1cc(-c2[nH]c3c(c2Nc2ccccc2)C(=O)CC(CCl)C3)ccn1` (stereo not shown) [Example 444, N-{4-[6-(chloromethyl)-4-oxo-3-(phenylamino)-4,5,6,7-tetrahydro-1H-indol-2-yl]pyridin-2-yl}acetamide]: 4.61 nM.
For `CC1(C)CC(=O)c2c([nH]c(-c3ccncc3)c2Nc2ccccc2)C1O` (stereo not shown) [Example 445, 7-hydroxy-6,6-dimethyl-3-(phenylamino)-2-(pyridin-4-yl)-1,5,6,7-tetrahydro-4H-indol-4-one], the IC50 is 10 nM.
Regarding `O=C1CCC(O)c2[nH]c(-c3ccncc3)c(Nc3ccccc3)c21` (stereo not shown) [Example 446, 7-hydroxy-3-(phenylamino)-2-(pyridin-4-yl)-1,5,6,7-tetrahydro-4H-indol-4-one], the IC50 amounted to 40.1 nM.
Next, `Cn1cc(C(=O)Nc2cc(-c3[nH]c4c(c3Nc3ccccc3)C(=O)CCC4)ccn2)cn1` [Example 447, 1-methyl-N-{4-[4-oxo-3-(phenylamino)-4,5,6,7-tetrahydro-1H-indol-2-yl]pyridin-2-yl}-1H-pyrazole-4-carboxamide]: 11.2 nM; `CC(C)(C)n1cc(C(=O)Nc2cc(-c3[nH]c4c(c3Nc3ccccc3)C(=O)CCC4)ccn2)cn1` [Example 448, 1-tert-butyl-N-{4-[4-oxo-3-(phenylamino)-4,5,6,7-tetrahydro-1H-indol-2-yl]pyridin-2-yl}-1H-pyrazole-4-carboxamide]: 8.93 nM; `O=C(Nc1cc(-c2[nH]c3c(c2Nc2ccccc2)C(=O)CCC3)ccn1)c1cnn(Cc2ccccc2)c1` [Example 449, 1-benzyl-N-{4-[4-oxo-3-(phenylamino)-4,5,6,7-tetrahydro-1H-indol-2-yl]pyridin-2-yl}-1H-pyrazole-4-carboxamide]: 4.38 nM.
Next, `COc1ccc(Cn2cc(C(=O)Nc3cc(-c4[nH]c5c(c4Nc4ccccc4)C(=O)CCC5)ccn3)cn2)cc1` [Example 450, 1-(4-methoxybenzyl)-N-{4-[4-oxo-3-(phenylamino)-4,5,6,7-tetrahydro-1H-indol-2-yl]pyridin-2-yl}-1H-pyrazole-4-carboxamide]: 6.24 nM; `O=C(Nc1cc(-c2[nH]c3c(c2Nc2ccccc2)C(=O)CCC3)ccn1)c1ccc(F)c(F)c1` [Example 451, 3,4-difluoro-N-{4-[4-oxo-3-(phenylamino)-4,5,6,7-tetrahydro-1H-indol-2-yl]pyridin-2-yl}benzamide]: 8.82 nM; `O=C(Nc1cc(-c2[nH]c3c(c2Nc2ccccc2)C(=O)CCC3)ccn1)c1cc(F)cc(F)c1` [Example 452, 3,5-difluoro-N-{4-[4-oxo-3-(phenylamino)-4,5,6,7-tetrahydro-1H-indol-2-yl]pyridin-2-yl}benzamide]: 19.2 nM.
Next, `COc1cc(C(=O)Nc2cc(-c3[nH]c4c(c3Nc3ccccc3)C(=O)CCC4)ccn2)ccc1F` [Example 453, 4-fluoro-3-methoxy-N-{4-[4-oxo-3-(phenylamino)-4,5,6,7-tetrahydro-1H-indol-2-yl]pyridin-2-yl}benzamide]: 10 nM.
`Cn1ccc(C(=O)Nc2cc(-c3[nH]c4c(c3Nc3ccccc3)C(=O)CCC4)ccn2)n1` [Example 454, 1-methyl-N-{4-[4-oxo-3-(phenylamino)-4,5,6,7-tetrahydro-1H-indol-2-yl]pyridin-2-yl}-1H-pyrazole-3-carboxamide]: the IC50 came to 7.33 nM.
Next, `O=C1CCCc2[nH]c(-c3ccncc3OCC3CC3)c(Nc3ccccc3)c21` [Example 455, 2-[3-(cyclopropylmethoxy)pyridin-4-yl]-3-(phenylamino)-1,5,6,7-tetrahydro-4H-indol-4-one]: 24.4 nM; `CCCOc1cnccc1-c1[nH]c2c(c1Nc1ccccc1)C(=O)CCC2` [Example 456, 3-(phenylamino)-2-(3-propoxypyridin-4-yl)-1,5,6,7-tetrahydro-4H-indol-4-one]: 73.3 nM; `O=C1CCCc2[nH]c(-c3ccncc3OCC(F)F)c(Nc3ccccc3)c21` [Example 457, 2-[3-(2,2-difluoroethoxy)pyridin-4-yl]-3-(phenylamino)-1,5,6,7-tetrahydro-4H-indol-4-one]: 53.5 nM.
Next, `O=C1CCCc2[nH]c(-c3ccncc3OCC(F)(F)F)c(Nc3ccccc3)c21` [Example 458, 3-(phenylamino)-2-[3-(2,2,2-trifluoroethoxy)pyridin-4-yl]-1,5,6,7-tetrahydro-4H-indol-4-one]: 78.7 nM; `O=C1CCCc2[nH]c(-c3ccncc3OCCO)c(Nc3ccccc3)c21` [Example 459, 2-[3-(2-hydroxyethoxy)pyridin-4-yl]-3-(phenylamino)-1,5,6,7-tetrahydro-4H-indol-4-one]: 58.8 nM.
For the molecule `CC1(C)OC[C@@H](C(=O)Nc2cc(-c3[nH]c4c(c3Nc3ccccc3)C(=O)CCC4)ccn2)O1` [Example 460, (4S)-2,2-dimethyl-N-{4-[4-oxo-3-(phenylamino)-4,5,6,7-tetrahydro-1H-indol-2-yl]pyridin-2-yl}-1,3-dioxolane-4-carboxamide], the half-inhibitory concentration (IC50) was found to be 19.7 nM.
Then `CC(=O)Nc1cc(-c2[nH]c3c(c2Nc2ccccc2)C(=O)CC(CF)C3)ccn1` (stereo not shown) [Example 461, N-{4-[6-(fluoromethyl)-4-oxo-3-(phenylamino)-4,5,6,7-tetrahydro-1H-indol-2-yl]pyridin-2-yl}acetamide], with 6.88 nM; and `O=C(COc1ccc(F)cc1)Nc1cc(-c2[nH]c3c(c2Nc2ccccc2)C(=O)CCC3)ccn1` [Example 462, N-[4-(3-anilino-4-oxo-4,5,6,7-tetrahydro-1H-indol-2-yl)pyridin-2-yl]-2-(4-fluorophenoxy)acetamide], with 18.2 nM.
Then `Cn1ccnc1CC(=O)Nc1cc(-c2[nH]c3c(c2Nc2ccccc2)C(=O)CCC3)ccn1` [Example 463, N-[4-(3-anilino-4-oxo-4,5,6,7-tetrahydro-1H-indol-2-yl)pyridin-2-yl]-2-(1-methyl-1H-imidazol-2-yl)acetamide], with 142 nM.
Take `CC1(C)CC(=O)c2c([nH]c(-c3ccncc3O)c2Nc2ccccc2)C1` [Example 464, 3-anilino-2-(3-hydroxypyridin-4-yl)-6,6-dimethyl-1,5,6,7-tetrahydro-4H-indol-4-one]: the IC50 amounted to 58.9 nM.
